# Data from patent US20250326744A1, “PIPERAZINE DERIVATIVE OR SALT THEREOF, AND PHARMACEUTICAL COMPOSITION” (priority 2022, published 2025).
# Counter-ions that a name gives are not always drawn.
# How the values were obtained:
# S-3769 strain = test: Combinational effect with antibacterial agent against Pseudomonas aeruginosa (Test Examples 2 and 4): S-3769 strain with AMK or GM at 1/4 MIC, EC99; format: cell-based; conditions: S-3769 strain, Test Example 4; for EC99, combinational effect with AMK, S-3769 strain: combined with AMK at 1/4 MIC; for EC99, combinational effect with GM, S-3769 strain: combined with GM at 1/4 MIC
# Summary of the method: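 EC99, the lowest test-compound concentration inhibiting growth by ≥99% (OD595), was measured with aminoglycoside AMK or GM held at ¼ MIC. Strain S-3769, a MexY-overexpressing clinical isolate, was cultured in CAMHB at 10^4 to 5 CFU/well for 16–20 h; compound range 0–800 μM.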
# mexB (PA) strain = test: Combinational effect with antibacterial agent against Pseudomonas aeruginosa (Test Examples 2 and 4): mexB (PA) strain with LVFX, TC or AZT at 1/4 MIC, EC99; format: cell-based; conditions: mexB (PA) strain, Test Example 4; for EC99, combinational effect with AZT, mexB (PA): combined with AZT at 1/4 MIC; for EC99, combinational effect with LVFX, mexB (PA): combined with LVFX at 1/4 MIC; for EC99, combinational effect with TC, mexB (PA): combined with TC at 1/4 MIC
# Summary of the method: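 EC99 denotes the minimum test-compound concentration (range 0–800 μM) that suppresses ≥99% of growth, measured by OD595, when combined with ¼ MIC levofloxacin (LVFX), tetracycline or aztreonam. The efflux-pump mutant mexB (PA), expressing mainly MexAB-OprM, was inoculated at 10^4–5 CFU/well in CAMHB for 16–20 h.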
smiles,measurement,setting,value
"CCSc1cc(F)ccc1CN1CCN(C(=O)[C@H](N)C2CCN(CCc3cscc3-c3ccccc3)CC2)CC1 [Example 608, Hydrochloride of (R)-2-amino-1-(4-(2-(ethylthio)-4-fluorobenzyl)piperazin-1-yl)-2-(1-(2-(4-phenylthiophen-3-yl)ethyl)piperidin-4-yl)ethan-1-one]","EC99, combinational effect with AMK, S-3769 strain",S-3769 strain,B (25 μM<EC99≤100 μM)
same,"EC99, combinational effect with GM, S-3769 strain",S-3769 strain,B (25 μM<EC99≤100 μM)
same,"EC99, combinational effect with AZT, mexB (PA)",mexB (PA) strain,B (25 μM<EC99≤100 μM)
same,"EC99, combinational effect with LVFX, mexB (PA)",mexB (PA) strain,B (25 μM<EC99≤100 μM)
same,"EC99, combinational effect with TC, mexB (PA)",mexB (PA) strain,B (25 μM<EC99≤100 μM)
"CCSc1cc(F)ccc1CN1CCN(C(=O)[C@H](N)C2CCN(CCc3cc(Cl)ccc3-c3cc(O)cc(F)c3)CC2)CC1 [Example 609, (R)-2-amino-2-(1-(2-(4-chloro-3′-fluoro-5′-hydroxy-[1,1′-biphenyl]-2-yl)ethyl)piperidin-4-yl)-1-(4-(2-(ethylthio)-4-fluorobenzyl)piperazin-1-yl)ethan-1-one]","EC99, combinational effect with AMK, S-3769 strain",S-3769 strain,S (EC99≤12.5 μM)
same,"EC99, combinational effect with GM, S-3769 strain",S-3769 strain,S (EC99≤12.5 μM)
same,"EC99, combinational effect with AZT, mexB (PA)",mexB (PA) strain,S (EC99≤12.5 μM)
same,"EC99, combinational effect with LVFX, mexB (PA)",mexB (PA) strain,S (EC99≤12.5 μM)
same,"EC99, combinational effect with TC, mexB (PA)",mexB (PA) strain,S (EC99≤12.5 μM)
"CSc1ccccc1CN1CCN(C(=O)[C@H](N)C2CCN(CCc3cc(Cl)ccc3-c3cc(O)cc(Cl)c3)CC2)CC1 [Example 610, (R)-2-amino-2-(1-(2-(3′-4-dichloro-5′-hydroxy-[1,1′-biphenyl]-2-yl)ethyl)piperidin-4-yl)-1-(4-(2-(methylthio)benzyl)piperazin-1-yl)ethan-1-one]","EC99, combinational effect with AMK, S-3769 strain",S-3769 strain,S (EC99≤12.5 μM)
same,"EC99, combinational effect with GM, S-3769 strain",S-3769 strain,S (EC99≤12.5 μM)
same,"EC99, combinational effect with AZT, mexB (PA)",mexB (PA) strain,S (EC99≤12.5 μM)
same,"EC99, combinational effect with LVFX, mexB (PA)",mexB (PA) strain,S (EC99≤12.5 μM)
same,"EC99, combinational effect with TC, mexB (PA)",mexB (PA) strain,S (EC99≤12.5 μM)
"CSc1ccccc1CN1CCN(C(=O)[C@H](N)C2CCN(CCc3cc(Cl)ccc3-c3cccc(O)c3)CC2)CC1 [Example 611, Hydrochloride of (R)-2-amino-2-(1-(2-(4-chloro-3′-hydroxy-[1,1-biphenyl]-2-yl)ethyl)piperidin-4-yl)-1-(4-(2-(methylthio)benzyl)piperazin-1-yl)ethan-1-one]","EC99, combinational effect with AMK, S-3769 strain",S-3769 strain,S (EC99≤12.5 μM)
same,"EC99, combinational effect with GM, S-3769 strain",S-3769 strain,B (25 μM<EC99≤100 μM)
same,"EC99, combinational effect with AZT, mexB (PA)",mexB (PA) strain,S (EC99≤12.5 μM)
same,"EC99, combinational effect with LVFX, mexB (PA)",mexB (PA) strain,S (EC99≤12.5 μM)
same,"EC99, combinational effect with TC, mexB (PA)",mexB (PA) strain,S (EC99≤12.5 μM)
"CSc1ccccc1CN1CCN(C(=O)[C@H](N)C2CCN(CCc3cc(Cl)ccc3-c3cc(O)ccc3F)CC2)CC1 [Example 612, (R)-2-amino-2-(1-(2-(4-chloro-2′-fluoro-5′-hydroxy-[1,1′-biphenyl]-2-yl)ethyl)piperidin-4-yl)-1-(4-(2-(methylthio)benzyl)piperazin-1-yl)ethan-1-one]","EC99, combinational effect with AMK, S-3769 strain",S-3769 strain,S (EC99≤12.5 μM)
same,"EC99, combinational effect with GM, S-3769 strain",S-3769 strain,S (EC99≤12.5 μM)
same,"EC99, combinational effect with AZT, mexB (PA)",mexB (PA) strain,S (EC99≤12.5 μM)
same,"EC99, combinational effect with LVFX, mexB (PA)",mexB (PA) strain,S (EC99≤12.5 μM)
same,"EC99, combinational effect with TC, mexB (PA)",mexB (PA) strain,S (EC99≤12.5 μM)
"CCSc1cc(F)ccc1CN1CCN(C(=O)[C@H](N)C2CCN(CCc3cc(Cl)ccc3-c3cc(O)cc(Cl)c3)CC2)CC1 [Example 614, (R)-2-amino-2-(1-(2-(3′,4-dichloro-5′-hydroxy-[1,1′-biphenyl]-2-yl)ethyl)piperidin-4-yl)-1-(4-(2-(ethylthio)-4-fluorobenzyl)piperazin-1-yl)ethan-1-one]","EC99, combinational effect with AMK, S-3769 strain",S-3769 strain,S (EC99≤12.5 μM)
same,"EC99, combinational effect with GM, S-3769 strain",S-3769 strain,S (EC99≤12.5 μM)
same,"EC99, combinational effect with AZT, mexB (PA)",mexB (PA) strain,S (EC99≤12.5 μM)
same,"EC99, combinational effect with LVFX, mexB (PA)",mexB (PA) strain,S (EC99≤12.5 μM)
same,"EC99, combinational effect with TC, mexB (PA)",mexB (PA) strain,S (EC99≤12.5 μM)
"CCSc1cc(F)ccc1CN1CCN(C(=O)[C@H](N)C2CCN(CCc3cc(Cl)ccc3-c3cc(O)ccc3F)CC2)CC1 [Example 615, (R)-2-amino-2-(1-(2-(4-chloro-2′-fluoro-5′-hydroxy-[1,1′-biphenyl]-2-yl)ethyl)piperidin-4-yl)-1-(4-(2-(ethylthio)-4-fluorobenzyl)piperazin-1-yl)ethan-1-one]","EC99, combinational effect with AMK, S-3769 strain",S-3769 strain,S (EC99≤12.5 μM)
same,"EC99, combinational effect with GM, S-3769 strain",S-3769 strain,S (EC99≤12.5 μM)
same,"EC99, combinational effect with AZT, mexB (PA)",mexB (PA) strain,S (EC99≤12.5 μM)
same,"EC99, combinational effect with LVFX, mexB (PA)",mexB (PA) strain,S (EC99≤12.5 μM)
same,"EC99, combinational effect with TC, mexB (PA)",mexB (PA) strain,S (EC99≤12.5 μM)
"CCSc1cc(F)ccc1CN1CCN(C(=O)[C@H](N)C2CCN(CCc3cc(Cl)ccc3-c3cccc(O)c3Cl)CC2)CC1 [Example 616, (R)-2-amino-2-(1-(2-(2′,4-dichloro-3′-hydroxy-[1,1′-biphenyl]-2-yl)ethyl)piperidin-4-yl)-1-(4-(2-(ethylthio)-4-fluorobenzyl)piperazin-1-yl)ethan-1-one]","EC99, combinational effect with AMK, S-3769 strain",S-3769 strain,S (EC99≤12.5 μM)
same,"EC99, combinational effect with GM, S-3769 strain",S-3769 strain,S (EC99≤12.5 μM)
same,"EC99, combinational effect with AZT, mexB (PA)",mexB (PA) strain,S (EC99≤12.5 μM)
same,"EC99, combinational effect with LVFX, mexB (PA)",mexB (PA) strain,S (EC99≤12.5 μM)
same,"EC99, combinational effect with TC, mexB (PA)",mexB (PA) strain,S (EC99≤12.5 μM)
"CSc1ccccc1CN1CCN(C(=O)[C@H](N)C2CCN(CCc3cc(Cl)ccc3-c3cc(O)cc(F)c3)CC2)CC1 [Example 617, (R)-2-amino-2-(1-(2-(4-chloro-3′-fluoro-5′-hydroxy-[1,1′-biphenyl]-2-yl)ethyl)piperidin-4-yl)-1-(4-(2-(methylthio)benzyl)piperazin-1-yl)ethan-1-one]","EC99, combinational effect with AMK, S-3769 strain",S-3769 strain,S (EC99≤12.5 μM)
same,"EC99, combinational effect with GM, S-3769 strain",S-3769 strain,S (EC99≤12.5 μM)
same,"EC99, combinational effect with AZT, mexB (PA)",mexB (PA) strain,S (EC99≤12.5 μM)
same,"EC99, combinational effect with LVFX, mexB (PA)",mexB (PA) strain,S (EC99≤12.5 μM)
same,"EC99, combinational effect with TC, mexB (PA)",mexB (PA) strain,S (EC99≤12.5 μM)
"CSc1ccccc1CN1CCN(C(=O)[C@H](N)C2CCN(CCc3cc(Cl)ccc3-c3cc(O)ccc3Cl)CC2)CC1 [Example 618, (R)-2-amino-2-(1-(2-(2′,4-dichloro-5′-hydroxy-[1,1′-biphenyl]-2-yl)ethyl)piperidin-4-yl)-1-(4-(2-(methylthio)benzyl)piperazin-1-yl)ethan-1-one]","EC99, combinational effect with AMK, S-3769 strain",S-3769 strain,S (EC99≤12.5 μM)
same,"EC99, combinational effect with GM, S-3769 strain",S-3769 strain,S (EC99≤12.5 μM)
same,"EC99, combinational effect with AZT, mexB (PA)",mexB (PA) strain,S (EC99≤12.5 μM)
same,"EC99, combinational effect with LVFX, mexB (PA)",mexB (PA) strain,S (EC99≤12.5 μM)
same,"EC99, combinational effect with TC, mexB (PA)",mexB (PA) strain,S (EC99≤12.5 μM)
"CCSc1cc(F)ccc1CN1CCN(C(=O)[C@H](N)C2CCN(CCc3cc(Cl)ccc3-c3cc(O)ccc3Cl)CC2)CC1 [Example 619, (R)-2-amino-2-(1-(2-(2′,4-dichloro-5′-hydroxy-[1,1′-biphenyl]-2-yl)ethyl)piperidin-4-yl)-1-(4-(2-(ethylthio)-4-fluorobenzyl)piperazin-1-yl)ethan-1-one]","EC99, combinational effect with AMK, S-3769 strain",S-3769 strain,S (EC99≤12.5 μM)
same,"EC99, combinational effect with GM, S-3769 strain",S-3769 strain,S (EC99≤12.5 μM)
same,"EC99, combinational effect with AZT, mexB (PA)",mexB (PA) strain,S (EC99≤12.5 μM)
same,"EC99, combinational effect with LVFX, mexB (PA)",mexB (PA) strain,S (EC99≤12.5 μM)
same,"EC99, combinational effect with TC, mexB (PA)",mexB (PA) strain,S (EC99≤12.5 μM)
"CCSc1ccc(O)cc1CN1CCN(C(=O)[C@H](N)C2CCN(CCc3cc(Cl)ccc3-c3cc(O)cc(F)c3)CC2)CC1 [Example 620, (R)-2-amino-2-(1-(2-(4-chloro-3′-fluoro-5′-hydroxy-[1,1′-biphenyl]-2-yl)ethyl)piperidin-4-yl)-1-(4-(2-(ethylthio)-5-hydroxybenzyl)piperazin-1-yl)ethan-1-one]","EC99, combinational effect with AMK, S-3769 strain",S-3769 strain,S (EC99≤12.5 μM)
same,"EC99, combinational effect with GM, S-3769 strain",S-3769 strain,S (EC99≤12.5 μM)
same,"EC99, combinational effect with AZT, mexB (PA)",mexB (PA) strain,S (EC99≤12.5 μM)
same,"EC99, combinational effect with LVFX, mexB (PA)",mexB (PA) strain,S (EC99≤12.5 μM)
same,"EC99, combinational effect with TC, mexB (PA)",mexB (PA) strain,S (EC99≤12.5 μM)
"CCSc1ccc(O)cc1CN1CCN(C(=O)[C@H](N)C2CCN(CCc3cc(Cl)ccc3-c3cc(O)ccc3F)CC2)CC1 [Example 621, (R)-2-amino-2-(1-(2-(4-chloro-2′-fluoro-5′-hydroxy-[1,1′-biphenyl]-2-yl)ethyl)piperidin-4-yl)-1-(4-(2-(ethylthio)-5-hydroxybenzyl)piperazin-1-yl)ethan-1-one]","EC99, combinational effect with AMK, S-3769 strain",S-3769 strain,S (EC99≤12.5 μM)
same,"EC99, combinational effect with GM, S-3769 strain",S-3769 strain,S (EC99≤12.5 μM)
same,"EC99, combinational effect with AZT, mexB (PA)",mexB (PA) strain,S (EC99≤12.5 μM)
same,"EC99, combinational effect with LVFX, mexB (PA)",mexB (PA) strain,S (EC99≤12.5 μM)
same,"EC99, combinational effect with TC, mexB (PA)",mexB (PA) strain,S (EC99≤12.5 μM)
"CCSc1ccc(O)cc1CN1CCN(C(=O)[C@H](N)C2CCN(CCc3cc(Cl)ccc3-c3cccc(O)c3Cl)CC2)CC1 [Example 622, Hydrochloride of (R)-2-amino-2-(1-(2-(2′,4-dichloro-3′-hydroxy-[1,1-biphenyl]-2-yl)ethyl)piperidin-4-yl)-1-(4-(2-(ethylthio)-5-hydroxybenzyl)piperazin-1-yl)ethan-1-one]","EC99, combinational effect with AMK, S-3769 strain",S-3769 strain,S (EC99≤12.5 μM)
same,"EC99, combinational effect with GM, S-3769 strain",S-3769 strain,A (12.5 μM<EC99≤25 μM)
same,"EC99, combinational effect with AZT, mexB (PA)",mexB (PA) strain,S (EC99≤12.5 μM)
same,"EC99, combinational effect with LVFX, mexB (PA)",mexB (PA) strain,S (EC99≤12.5 μM)
same,"EC99, combinational effect with TC, mexB (PA)",mexB (PA) strain,S (EC99≤12.5 μM)
